{"source": "patent US11771736B2", "about": "“Composition comprising a therapeutic agent and a CXCR4 selective antagonist and methods for using the same” (Mainline Biosciences (Shanghai) Co., Ltd., priority 2017, dated 2023)", "molecular_target": "T1, Human chemokine receptor CXCR4 (Homo sapiens, UniProt P61073)", "T1 construct": "expressed in transfected cells; host or cells: Chem-1 cells (membranes)", "T1 sequence (P61073 whole entry)": "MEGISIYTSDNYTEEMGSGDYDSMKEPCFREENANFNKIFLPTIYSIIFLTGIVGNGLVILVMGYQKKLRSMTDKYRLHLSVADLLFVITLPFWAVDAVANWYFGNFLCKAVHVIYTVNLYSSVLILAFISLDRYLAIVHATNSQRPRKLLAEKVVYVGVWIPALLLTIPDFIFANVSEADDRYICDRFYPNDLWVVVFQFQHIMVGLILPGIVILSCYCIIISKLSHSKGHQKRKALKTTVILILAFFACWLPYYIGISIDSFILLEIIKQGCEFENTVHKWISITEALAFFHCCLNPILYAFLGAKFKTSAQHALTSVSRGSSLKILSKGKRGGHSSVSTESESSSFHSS", "assay": "Human CXCR4/125I-SDF-1α binding inhibition assay", "procedure": "Non-specific binding was estimated in the presence of 30 nM SDF-1α.", "note": "Numbered stars: 1 amine (or outer) side, 2 acyl side, 3 side chain; on linkers, the order of the positions; unused ones are H or OH. Bridge positions count the residues as written; N and C are the ends. Square brackets hold non-standard residues; d marks the D form. Peptide text beside a SMILES is read from it. * marks the point of attachment. 2Nal = N[C@@H](Cc1ccc2ccccc2c1)C(=O)O; oXylylene = c1ccc(C[*:2])c(C[*:1])c1; Lys(iPr) = CC(C)NCCCC[C@H](N)C(=O)O; Bz = O=C(c1ccccc1)*", "data": [{"smiles": "CC(C)NCCCC[C@H](NC(=O)[C@@H]1CSCc2ccccc2CSC[C@H](NC(=O)c2ccccc2)C(=O)N[C@@H](Cc2ccc(O)cc2)C(=O)N[C@@H](CCCCNC(C)C)C(=O)N[C@H](CCCNC(=N)N)C(=O)N[C@@H](Cc2ccc3ccccc3c2)C(=O)NCC(=O)N1)C(=O)NCC(N)=O", "note": "[Example 20] (Bz-CY[Lys(iPr)][dR][2Nal]GC[Lys(iPr)]G-NH2; linker 1-7 via oXylylene)", "values": [{"measurement": "IC50", "value": 1300, "unit": "pM"}, {"measurement": "Kb", "value": 390, "unit": "pM"}]}]}
